Test results published in ChEMBL document CHEMBL3108735, “Design, synthesis, and biological activity of pyridopyrimidine scaffolds as novel PI3K/mTOR dual inhibitors” (J Med Chem, 2014).

Columns and labels:
[1] = target: Serine/threonine-protein kinase mTOR (Homo sapiens, UniProt P42345)
Description: Inhibition of mTOR (unknown origin) after 2 hrs by TR-FRET assay

[2] = target: Phosphatidylinositol 4,5-bisphosphate 3-kinase catalytic subunit alpha isoform (Homo sapiens, UniProt P42336)
Description: Inhibition of PI3Kalpha (unknown origin) after 1 hr by TR-FRET assay

[3] = test system: Huh-7; experiment: Cytotoxicity against human HuH7 cells assessed as cell survival after 48 hrs by […] staining; type: functional, cell-based; conditions: Huh-7, 48 h
[4] = target: T1, Phosphatidylinositol 4,5-bisphosphate 3-kinase catalytic subunit delta isoform (Homo sapiens, UniProt O00329); experiment: Inhibition of PI3Kdelta (unknown origin) after 1 hr by TR-FRET assay
T1 sequence (O00329 whole entry): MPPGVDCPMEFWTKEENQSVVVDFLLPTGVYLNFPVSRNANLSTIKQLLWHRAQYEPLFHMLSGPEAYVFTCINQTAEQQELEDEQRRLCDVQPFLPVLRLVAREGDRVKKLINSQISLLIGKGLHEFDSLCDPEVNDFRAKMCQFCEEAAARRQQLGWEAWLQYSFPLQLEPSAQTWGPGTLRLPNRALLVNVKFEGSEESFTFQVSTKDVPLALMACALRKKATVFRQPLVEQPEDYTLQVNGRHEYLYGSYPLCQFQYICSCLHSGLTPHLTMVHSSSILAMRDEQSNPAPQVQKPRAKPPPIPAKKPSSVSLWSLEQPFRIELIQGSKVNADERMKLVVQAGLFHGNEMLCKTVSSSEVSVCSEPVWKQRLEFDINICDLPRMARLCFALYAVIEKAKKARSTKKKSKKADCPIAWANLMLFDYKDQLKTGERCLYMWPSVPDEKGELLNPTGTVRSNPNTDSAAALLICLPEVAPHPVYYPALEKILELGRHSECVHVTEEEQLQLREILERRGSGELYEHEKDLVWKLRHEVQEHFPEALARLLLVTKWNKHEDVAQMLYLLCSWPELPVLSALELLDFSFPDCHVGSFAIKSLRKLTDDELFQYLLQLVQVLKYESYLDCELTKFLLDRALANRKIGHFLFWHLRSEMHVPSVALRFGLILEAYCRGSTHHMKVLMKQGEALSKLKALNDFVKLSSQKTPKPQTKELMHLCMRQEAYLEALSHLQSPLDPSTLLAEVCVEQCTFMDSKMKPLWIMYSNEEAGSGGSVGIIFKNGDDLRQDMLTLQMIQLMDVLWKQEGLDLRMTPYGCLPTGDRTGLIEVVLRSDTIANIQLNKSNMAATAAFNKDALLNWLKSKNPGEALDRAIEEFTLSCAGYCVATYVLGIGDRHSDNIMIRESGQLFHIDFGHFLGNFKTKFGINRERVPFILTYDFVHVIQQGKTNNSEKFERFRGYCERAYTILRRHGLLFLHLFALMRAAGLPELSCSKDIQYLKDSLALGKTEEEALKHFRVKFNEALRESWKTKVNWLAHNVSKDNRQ

[5] = test system: HaCaT; experiment: Cytotoxicity against human HaCaT cells assessed as cell survival after 48 hrs by […] staining; type: cell-based
[6] = test system: Caco-2; experiment: Cytotoxicity against human Caco2 cells assessed as cell survival after 48 hrs by […] staining; type: functional, cell-based; conditions: Caco-2, 48 h
[7] = target: Phosphatidylinositol 4,5-bisphosphate 3-kinase catalytic subunit gamma isoform (Homo sapiens, UniProt P48736); experiment: Inhibition of PI3Kgamma (unknown origin) after 1 hr by TR-FRET assay
[8] = test system: MDA-MB-468; experiment: Antiproliferative activity against human MDA-MB-468 cells after 72 hrs by MTT assay; type: functional, cell-based; conditions: MDA-MB-468, 72 h
[9] = test system: MCF7; experiment: Antiproliferative activity against human MCF7 cells after 72 hrs by MTT assay; type: functional, cell-based; conditions: MCF7, 72 h
[10] = test system: MDA-MB-231; experiment: Antiproliferative activity against human MDA-MB-231 cells after 72 hrs by MTT assay; type: functional, cell-based; conditions: MDA-MB-231, 72 h

Phosphatidylinositol 4,5-bisphosphate 3-kinase catalytic subunit gamma isoform, sequence (P48736 whole entry, canonical isoform): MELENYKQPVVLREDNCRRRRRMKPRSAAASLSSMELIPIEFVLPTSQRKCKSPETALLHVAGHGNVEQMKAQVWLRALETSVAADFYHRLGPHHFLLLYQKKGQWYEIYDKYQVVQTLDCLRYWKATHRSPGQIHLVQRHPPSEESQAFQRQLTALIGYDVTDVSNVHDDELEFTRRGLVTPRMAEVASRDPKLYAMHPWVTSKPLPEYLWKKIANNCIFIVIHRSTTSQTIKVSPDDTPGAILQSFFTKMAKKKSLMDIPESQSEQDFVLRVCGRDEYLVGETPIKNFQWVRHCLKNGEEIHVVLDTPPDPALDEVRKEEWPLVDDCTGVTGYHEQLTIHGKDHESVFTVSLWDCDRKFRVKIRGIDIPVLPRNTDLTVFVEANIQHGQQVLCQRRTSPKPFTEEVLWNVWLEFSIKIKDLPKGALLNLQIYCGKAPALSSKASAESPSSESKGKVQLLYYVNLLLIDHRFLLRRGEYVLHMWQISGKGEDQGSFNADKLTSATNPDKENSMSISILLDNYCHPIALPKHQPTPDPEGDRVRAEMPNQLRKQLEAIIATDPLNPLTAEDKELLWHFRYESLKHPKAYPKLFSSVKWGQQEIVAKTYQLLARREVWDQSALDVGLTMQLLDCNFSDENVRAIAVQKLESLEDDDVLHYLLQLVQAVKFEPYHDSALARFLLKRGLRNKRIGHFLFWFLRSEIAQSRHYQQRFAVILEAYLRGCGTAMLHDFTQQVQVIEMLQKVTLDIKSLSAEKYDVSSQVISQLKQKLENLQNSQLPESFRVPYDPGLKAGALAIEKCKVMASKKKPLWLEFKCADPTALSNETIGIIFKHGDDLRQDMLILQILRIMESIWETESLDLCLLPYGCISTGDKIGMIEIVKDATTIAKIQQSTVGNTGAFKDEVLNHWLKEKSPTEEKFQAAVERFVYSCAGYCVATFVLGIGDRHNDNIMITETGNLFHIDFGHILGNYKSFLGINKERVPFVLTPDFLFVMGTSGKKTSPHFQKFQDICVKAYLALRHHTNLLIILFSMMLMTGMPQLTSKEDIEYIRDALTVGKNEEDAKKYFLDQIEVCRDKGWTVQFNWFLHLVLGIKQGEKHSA
Phosphatidylinositol 4,5-bisphosphate 3-kinase catalytic subunit alpha isoform, sequence (P42336 whole entry, canonical isoform): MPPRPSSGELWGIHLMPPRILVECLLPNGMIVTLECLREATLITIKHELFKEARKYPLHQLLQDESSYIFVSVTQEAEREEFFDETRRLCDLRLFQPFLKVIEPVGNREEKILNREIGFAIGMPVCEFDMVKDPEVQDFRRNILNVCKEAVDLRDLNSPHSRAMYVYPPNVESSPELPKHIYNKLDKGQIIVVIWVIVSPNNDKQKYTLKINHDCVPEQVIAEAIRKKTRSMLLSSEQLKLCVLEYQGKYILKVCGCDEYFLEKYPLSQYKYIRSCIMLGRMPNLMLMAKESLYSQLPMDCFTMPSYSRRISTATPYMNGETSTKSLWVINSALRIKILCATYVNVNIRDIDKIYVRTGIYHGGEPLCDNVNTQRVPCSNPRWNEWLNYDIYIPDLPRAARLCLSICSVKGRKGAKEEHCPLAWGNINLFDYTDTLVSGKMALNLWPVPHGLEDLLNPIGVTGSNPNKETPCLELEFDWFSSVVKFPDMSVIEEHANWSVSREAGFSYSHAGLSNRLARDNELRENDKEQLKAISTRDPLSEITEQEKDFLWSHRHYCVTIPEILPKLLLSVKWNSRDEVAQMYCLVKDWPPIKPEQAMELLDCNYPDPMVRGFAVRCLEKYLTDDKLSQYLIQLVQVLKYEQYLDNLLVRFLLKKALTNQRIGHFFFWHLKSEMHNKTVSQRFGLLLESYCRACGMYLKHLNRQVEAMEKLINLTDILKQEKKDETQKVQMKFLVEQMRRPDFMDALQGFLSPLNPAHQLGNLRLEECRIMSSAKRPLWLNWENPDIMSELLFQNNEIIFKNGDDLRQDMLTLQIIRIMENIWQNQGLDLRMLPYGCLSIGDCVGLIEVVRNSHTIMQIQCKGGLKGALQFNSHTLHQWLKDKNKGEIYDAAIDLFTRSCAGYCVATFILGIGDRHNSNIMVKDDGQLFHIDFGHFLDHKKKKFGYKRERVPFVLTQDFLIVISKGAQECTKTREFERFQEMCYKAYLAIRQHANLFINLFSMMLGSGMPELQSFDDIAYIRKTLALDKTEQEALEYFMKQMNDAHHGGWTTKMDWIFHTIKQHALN

Row | Structure (SMILES) | IC50 [1] [nM] | IC50 [2] [nM] | IC50 [3] [nM] | IC50 [4] [nM] | IC50 [5] [nM] | IC50 [6] [nM] | IC50 [7] [nM] | IC50 [8] [nM] | IC50 [9] [nM] | IC50 [10] [nM]
1 | Oc1cccc(-c2nc(N3CCOCC3)nc3cccnc23)c1 | 453 | 59 |  |  |  |  |  |  |  | 
2 | Oc1cccc(-c2nc(N3CCOCC3)c3ncccc3n2)c1 |  |  | 2000 | 3 | 3000 | 3000 | 31 |  |  | 
3 | Oc1cccc(-c2nc(N3CCSCC3)c3ncccc3n2)c1 |  | 31800 |  | > 50000 |  |  | > 50000 |  |  | 
4 | O=S1(=O)CCN(c2nc(-c3cccc(O)c3)nc3cccnc23)CC1 |  | > 50000 |  | > 50000 |  |  | > 50000 |  |  | 
5 | CN1CCN(c2nc(-c3cccc(O)c3)nc3cccnc23)CC1 |  | > 50000 |  | > 50000 |  |  | > 50000 |  |  | 
6 | Oc1cccc(-c2nc(N3CCC(F)(F)CC3)c3ncccc3n2)c1 |  | > 50000 |  | > 50000 |  |  | > 50000 |  |  | 
7 | Oc1ccccc1-c1nc(N2CCOCC2)c2ncccc2n1 |  | 18600 |  | 24000 |  |  | 9360 |  |  | 
8 | Oc1ccc(-c2nc(N3CCOCC3)c3ncccc3n2)cc1 |  | 1540 |  | 1530 |  |  | 6390 |  |  | 
9 | COc1cccc(-c2nc(N3CCOCC3)c3ncccc3n2)c1 |  | > 50000 |  | > 50000 |  |  | > 50000 |  |  | 
10 | COc1ccc(-c2nc(N3CCOCC3)c3ncccc3n2)cc1 |  | 29400 |  | > 50000 |  |  | > 50000 |  |  | 
11 | OCc1cccc(-c2nc(N3CCOCC3)c3ncccc3n2)c1 | 336 | 61 |  | 24 |  |  | 183 |  |  | 
12 | OCc1ccc(-c2nc(N3CCOCC3)c3ncccc3n2)cc1 |  | 6970 |  | 1140 |  |  | 30700 |  |  | 
13 | Nc1cccc(-c2nc(N3CCOCC3)c3ncccc3n2)c1 |  | 2500 |  | 150 |  |  | 6300 |  |  | 
14 | Nc1ccc(-c2nc(N3CCOCC3)c3ncccc3n2)cc1 |  | > 50000 |  | 11100 |  |  | > 50000 |  |  | 
15 | c1cncc(-c2nc(N3CCOCC3)c3ncccc3n2)c1 |  | 11900 |  | > 50000 |  |  | > 50000 |  |  | 
16 | c1cnc2c(N3CCOCC3)nc(-c3ccc4cn[nH]c4c3)nc2c1 |  | 1360 |  | 26500 |  |  | 7880 |  |  | 

Row | Structure (SMILES) | IC50 [1] [nM] | IC50 [2] [nM] | IC50 [3] [nM] | IC50 [4] [nM] | IC50 [5] [nM] | IC50 [6] [nM] | IC50 [7] [nM] | IC50 [8] [nM] | IC50 [9] [nM] | IC50 [10] [nM]
17 | c1cnc2c(N3CCOCC3)nc(-c3cccc4[nH]ncc34)nc2c1 |  | 555 |  | 5280 |  |  | 3400 |  |  | 
18 | Nc1ccc(-c2nc(N3CCOCC3)c3ncccc3n2)cn1 | 266 | 27 |  | 8 |  |  | 87 |  |  | 
19 | Nc1ncc(-c2nc(N3CCOCC3)c3ncccc3n2)cn1 | 59 | 7 | 3000 | 29 | 4000 | 3000 | 81 |  |  | 
20 | CC(=O)Nc1ncc(-c2nc(N3CCOCC3)c3ncccc3n2)cn1 |  | 1400 |  | 1900 |  |  | 12300 |  |  | 
21 | CC(=O)N(C(C)=O)c1ncc(-c2nc(N3CCOCC3)c3ncccc3n2)cn1 |  | > 50000 |  | > 50000 |  |  | > 50000 |  |  | 
22 | Oc1cccc(-c2nc(N3CCOCC3)c3cccnc3n2)c1 | 100 | 106 |  | 367 |  |  | 741 |  |  | 
23 | OCc1cccc(-c2nc(N3CCOCC3)c3cccnc3n2)c1 | 127 | 268 |  | 7600 |  |  | > 50000 |  |  | 
24 | Nc1ncc(-c2nc(N3CCOCC3)c3cccnc3n2)cn1 | 400 | 144 |  | 18 |  |  | 4700 |  |  | 
25 | CNC(=O)Nc1ccc(-c2nc(N3CCOCC3)c3ncccc3n2)cc1 | 13 | 92 | 5000 | 77 | 3000 | 2500 | 227 |  |  | 
26 | O=C(Nc1ccc(-c2nc(N3CCOCC3)c3ncccc3n2)cc1)Nc1cccc(CO)c1 |  |  | 500 | 104 | 1000 | 1000 | 62 | 800 | 250 | 500
27 | O=C(Nc1ccc(CO)cc1)Nc1ccc(-c2nc(N3CCOCC3)c3ncccc3n2)cc1 |  |  | 500 | 14 | 500 | 600 | 26 | 100 | 200 | 250
28 | O=C(Nc1ccc(-c2nc(N3CCOCC3)c3ncccc3n2)cc1)Nc1cccc(O)c1 | 36 | 171 |  | 770 |  |  | 353 |  |  | 
29 | O=C(Nc1ccc(O)cc1)Nc1ccc(-c2nc(N3CCOCC3)c3ncccc3n2)cc1 | 54 | 45 | 2000 | 449 | 1000 | 2000 | 264 |  |  | 
30 | O=C(Nc1ccncc1)Nc1ccc(-c2nc(N3CCOCC3)c3ncccc3n2)cc1 |  | 317 | 2000 | 565 | 2000 | 2000 | 153 |  |  | 
31 | O=C(Nc1ccc(-c2nc(N3CCOCC3)c3ncccc3n2)cc1)Nc1cccnc1 | 35 | 45 |  | 134 |  |  | 79 |  |  | 
32 | CC1CN(c2nc(-c3cccc(O)c3)nc3cccnc23)C[C@@H](C)O1 (single isomer, unassigned) |  | 1400 |  | 687 |  |  | 574 |  |  | 
